# Test results: BindingDB's records for doi:10.1016/s0960-894x(01)00019-1 (Glaxowellcome Medicines Research Centre, 2001)
# Assay: Inhibitory activity against influenza A sialidase (Aichi)
row,SMILES,IC50
1,"CCCN(CCc1ccccc1)C(=O)[C@@H]1OC(C(=O)O)=C[C@H](N)[C@H]1NC(=O)C1CC1 [(4S,5R,6R)-4-Amino-5-(cyclopropanecarbonyl-amino)-6-(phenethyl-propyl-carbamoyl)-5,6-dihydro-4H-pyran-2-carboxylic acid]",50 nM
2,"CCCN(CCc1ccccc1)C(=O)[C@@H]1OC(C(=O)O)=C[C@H](O)[C@H]1NC(C)=O [(4S,5R,6R)-5-Acetylamino-4-hydroxy-6-(phenethyl-propyl-carbamoyl)-5,6-dihydro-4H-pyran-2-carboxylic acid]",7 nM
3,"CCCN(CCc1ccccc1)C(=O)[C@@H]1OC(C(=O)O)=C[C@H](N)[C@H]1NC(=O)C(F)(F)F [(4S,5R,6R)-4-Amino-6-(phenethyl-propyl-carbamoyl)-5-(2,2,2-trifluoro-acetylamino)-5,6-dihydro-4H-pyran-2-carboxylic acid]",3 nM
4,"CCCN(CCC)C(=O)[C@@H]1OC(C(=O)O)=C[C@H](NCC)[C@H]1NC(C)=O [(4S,5R,6R)-5-Acetylamino-6-dipropylcarbamoyl-4-ethylamino-5,6-dihydro-4H-pyran-2-carboxylic acid]",420 nM
5,"CCCN(CCC)C(=O)[C@@H]1OC(C(=O)O)=C[C@H](N)[C@H]1NS(C)(=O)=O [(4S,5R,6R)-4-Amino-6-dipropylcarbamoyl-5-methanesulfonylamino-5,6-dihydro-4H-pyran-2-carboxylic acid]",3000 nM
6,"CCCN(CCc1ccccc1)C(=O)[C@@H]1OC(C(=O)O)=C[C@H](N)[C@H]1NC(=O)CC [(4S,5R,6R)-4-Amino-6-(phenethyl-propyl-carbamoyl)-5-propionylamino-5,6-dihydro-4H-pyran-2-carboxylic acid]",0.7 nM
7,"CCCN(CCC)C(=O)[C@@H]1OC(C(=O)O)=C[C@H](N)[C@H]1NC(=O)C(C)C [(4S,5R,6R)-4-Amino-6-dipropylcarbamoyl-5-isobutyrylamino-5,6-dihydro-4H-pyran-2-carboxylic acid]",17000 nM
8,"CCCC(=O)N[C@@H]1[C@@H](N)C=C(C(=O)O)O[C@H]1C(=O)N(CCC)CCc1ccccc1 [(4S,5R,6R)-4-Amino-5-butyrylamino-6-(phenethyl-propyl-carbamoyl)-5,6-dihydro-4H-pyran-2-carboxylic acid]",43000 nM
9,"CCCN(CCc1ccccc1)C(=O)[C@@H]1OC(C(=O)O)=CC[C@H]1NC(C)=O [(5R,6R)-5-Acetylamino-6-(phenethyl-propyl-carbamoyl)-5,6-dihydro-4H-pyran-2-carboxylic acid]",7 nM
10,"CCCN(CCC)C(=O)[C@@H]1OC(C(=O)O)=C[C@H](NC)[C@H]1NC(C)=O [(4S,5R,6R)-5-Acetylamino-6-dipropylcarbamoyl-4-methylamino-5,6-dihydro-4H-pyran-2-carboxylic acid]",240 nM
11,"CCCN(CCc1ccccc1)C(=O)[C@@H]1OC(C(=O)O)=C[C@@H](O)[C@H]1NC(C)=O [(4R,5R,6R)-5-Acetylamino-4-hydroxy-6-(phenethyl-propyl-carbamoyl)-5,6-dihydro-4H-pyran-2-carboxylic acid]",17 nM
12,"CCCN(CCC)C(=O)[C@@H]1OC(C(=O)O)=C[C@H](N)[C@H]1NC(=O)C(F)(F)F [(4S,5R,6R)-4-Amino-6-dipropylcarbamoyl-5-(2,2,2-trifluoro-acetylamino)-5,6-dihydro-4H-pyran-2-carboxylic acid]",0.3 nM
13,"CCCN(CCC)C(=O)[C@@H]1OC(C(=O)O)=C[C@@H](N)[C@H]1NC(C)=O [(4R,5R,6R)-5-Acetylamino-4-amino-6-dipropylcarbamoyl-5,6-dihydro-4H-pyran-2-carboxylic acid]",140 nM
14,"CCCN(CCC)C(=O)[C@@H]1OC(C(=O)O)=C[C@H](N)[C@H]1NC(=O)CC [(4S,5R,6R)-4-Amino-6-dipropylcarbamoyl-5-propionylamino-5,6-dihydro-4H-pyran-2-carboxylic acid]",5 nM
